The text below walks through data of patent US5747500A, “Antiviral 2, 4-pyrimidinedione derivatives” (priority 1993, dated 1998).

Converted amounts (≈) assume the structure as drawn.

In one data set the test system is HIV. The data set can be described thus: inhibition of HIV-induced cytopathic effect in MT-4 cells (MTT method). The settings on record: for EC50: Human immunodeficiency virus 1, MT4, HIV-infected MT-4 cells, 1000 CCID50, 4 or 5 day incubation at 37° C., MTT method, read-out: ED50: Effective concentration for the inhibition of the proliferation of HIV by 50%; for S.I.: Selectivity index (CD50/ED50): ratio CD50/ED50, MT-4 cells. The data set is classed as cell-based. The method, then:
The anti-HIV assays were based on the inhibition of the virus-induced cytopathic effect in MT-4 cells as described in J. Virol. Methods, 16, 171 (1987). Briefly, MT-4 cells were suspended in culture medium at 2.5×10^5 cells/ml and infected with 1000 CCID50 (50% cell culture infective dose) of HIV. Immediately, after virus infection, 100 μl of the cell suspension was brought into each well of a flat-bottomedmicrotiter tray containing various concentrations of the test compounds. After a 4 or 5 day incubation at 37° C., the number of viable cells was determined by the 3-(4,5-dimethylthiazol-2-yl)-2,5-diphenyltetrazoliumbromide (MTT) method, as disclosed in J. Virol. Methods, 20, 309 (1988).
ED50 : Effective concentration for the inhibition of the
proliferation of HIV by 50%
For orientation: Protection from cytopathic effect is a common read-out in antiviral testing.

Data set [1] is described as follows: cytotoxicity: viability of mock-infected MT-4 host cells (MTT method). The settings on record: human, mt-4 cells, read-out: CD50: Cytotoxic concentration that causes death of cells by 50%. It is filed as cell-based. The method, then:
The cytotoxicity of the compounds of the present invention was assessed in parallel with their antiviral activity. It was based on the viability of mock-infected host cells as determined by the MTT methods (se J. Virol. Methods, 20, 309 (1988)).
CD50 : Cytotoxic concentration that causes death of cells by 50%

For `CCc1c(Cc2cc(C)cc(C)c2)n(CC#Cc2ccccc2)c(=O)[nH]c1=O` [Example 40, 1-(3-phenyl-2-propynyl)-5-ethyl-6-(3,5-dimethylbenzyl)-2,4-pyrimidinedione], in the data set with HIV, the EC50 was below 0.009 µg/mL and the “S.I.: Selectivity index (CD50/ED50)” value is reported as above 557. Besides, in data set [1], the CC50 worked out at 5.02 µg/mL (≈ 13.5 µM).

In the case of `CC#CCn1c(Oc2cc(C)cc(C)c2)c(CC)c(=O)[nH]c1=O` [Example 58], in the data set on HIV, the EC50 is below 0.34 µg/mL and the “S.I.: Selectivity index (CD50/ED50)” value is above 143. In addition, the CC50 in data set [1] is 48.9 µg/mL (≈ 157 µM).

For the molecule `Cc1cc(C)cc(Oc2c(C(C)C)c(=O)[nH]c(=O)n2CC#Cc2ccccc2)c1` [Example 67, 1-(3-phenyl-2-propynyl)-5-isopropyl-6-(3,5-dimethylphenoxy)-2,4-pyrimidinedione], in the data set on HIV, the EC50 was below 0.009 µg/mL and the “S.I.: Selectivity index (CD50/ED50)” value is above 844. In addition, the CC50 in data set [1] was found to be 7.6 µg/mL (≈ 19.6 µM).

For `CCc1c(Sc2cc(C)cc(C)c2)n(C/C=C/C(=O)OC)c(=O)[nH]c1=O` [Example 21], in the data set with HIV, the EC50 is below 0.32 µg/mL and the “S.I.: Selectivity index (CD50/ED50)” value is recorded as above 129. The CC50 in data set [1] stood at 41.4 µg/mL (≈ 111 µM).

`CCc1c(C(=O)c2cc(C)cc(C)c2)n(C/C=C/CO)c(=O)[nH]c1=O` [Example 84]: in the data set on HIV, the EC50 was below 0.009 µg/mL and the “S.I.: Selectivity index (CD50/ED50)” value was > 6,160. Further, the CC50 in data set [1] amounted to 55.4 µg/mL (≈ 162 µM).

As for `CCc1c(Sc2cc(C)cc(C)c2)n(C/C=C/c2ccccc2)c(=O)[nH]c1=O` [Example 20], in the data set with HIV, the EC50 is below 0.009 µg/mL and the “S.I.: Selectivity index (CD50/ED50)” value is listed as above 578. Besides, the CC50 in data set [1] worked out at 5.21 µg/mL (≈ 13.3 µM).

Regarding `Cc1cc(C)cc(C(=O)c2c(C(C)C)c(=O)[nH]c(=O)n2C/C=C/c2ccccc2)c1` [Example 52], in the data set on HIV, the EC50 is below 0.009 µg/mL and the “S.I.: Selectivity index (CD50/ED50)” value is on record as > 1,083. In addition, the CC50 in data set [1] is 9.75 µg/mL (≈ 24.2 µM).

On to `CCc1c(Sc2cc(C)cc(C)c2)n(CC#Cc2ccccc2)c(=O)[nH]c1=O` [Example 26, 1-(3-phenyl-2-propynyl)-5-ethyl-6-(3,5-dimethylphenylthio)-2,4-pyrimidinedione], for which, in the data set with HIV, the EC50 is below 0.009 µg/mL and the “S.I.: Selectivity index (CD50/ED50)” value is recorded as above 547. In data set [1], the CC50 was 4.93 µg/mL (≈ 12.6 µM).

`CC/C=C/Cn1c(Oc2cc(C)cc(C)c2)c(CC)c(=O)[nH]c1=O` [Example 62]: in the data set with HIV, the EC50 is below 0.032 µg/mL and the “S.I.: Selectivity index (CD50/ED50)” value is above 251. In data set [1], the CC50 was 8.05 µg/mL (≈ 24.5 µM).

As for `C=CCn1c(Oc2cc(C)cc(C)c2)c(CC)c(=O)[nH]c1=O` [Example 57, 1-allyl-5-ethyl-6-(3,5-dimethylphenoxy)-2,4-pyrimidinedione], in the data set on HIV, the EC50 is below 0.32 µg/mL and the “S.I.: Selectivity index (CD50/ED50)” value is given as above 132. In addition, the CC50 in data set [1] is 42.4 µg/mL (≈ 141 µM).

Turning to `CCc1c(C(=O)c2cc(C)cc(C)c2)n(C/C=C\c2ccccc2)c(=O)[nH]c1=O` [Example 69, 1-(cis-cinnamyl)-5-ethyl-6-(3,5-dimethylbenzoyl)-2,4-pyrimidinedione], in the data set with HIV, the EC50 is below 0.032 µg/mL and the “S.I.: Selectivity index (CD50/ED50)” value is above 270. Moreover, the CC50 in data set [1] worked out at 8.67 µg/mL (≈ 22.3 µM).

`CCc1c(Sc2cc(C)cc(C)c2)n(C/C=C\CCl)c(=O)[nH]c1=O` [Example 23]: in the data set on HIV, the EC50 was below 0.93 µg/mL and the “S.I.: Selectivity index (CD50/ED50)” value was above 41. The CC50 in data set [1] was found to be 38.2 µg/mL (≈ 105 µM).

Consider `Cc1cc(C)cc(Cc2c(C(C)C)c(=O)[nH]c(=O)n2CC#Cc2ccccc2)c1` [Example 42, 1-(3-phenyl-2-propynyl)-5-isopropyl-6-(3,5-dimethylbenzyl)-2,4-pyrimidinedione], for which, in the data set with HIV, the EC50 was below 0.009 µg/mL and the “S.I.: Selectivity index (CD50/ED50)” value is above 824. Also, in data set [1], the CC50 was 7.42 µg/mL (≈ 19.2 µM).

Take `Cc1cc(C)cc(Sc2c(C(C)C)c(=O)[nH]c(=O)n2CC#Cc2ccccc2)c1` [Example 3, 1-(3-phenyl-2-propynyl)-5-isopropyl-6-(3,5-dimethylphenylthio)-2,4-pyrimidinedione]: in the data set with HIV, the EC50 was below 0.009 µg/mL and the “S.I.: Selectivity index (CD50/ED50)” value is recorded as above 882. Moreover, the CC50 in data set [1] amounted to 7.94 µg/mL (≈ 19.6 µM).

Consider `C/C=C/Cn1c(Sc2ccccc2)c(CC)c(=O)[nH]c1=O` [Example 13], for which, in the data set on HIV, the EC50 was below 0.32 µg/mL and the “S.I.: Selectivity index (CD50/ED50)” value was above 50. Also, the CC50 in data set [1] amounted to 16.2 µg/mL (≈ 53.5 µM).

As to `CC/C=C/Cn1c(C(=O)c2cc(C)cc(C)c2)c(CC)c(=O)[nH]c1=O` [Example 46], in the data set on HIV, the EC50 is below 0.009 µg/mL and the “S.I.: Selectivity index (CD50/ED50)” value is reported as > 1,015. The CC50 in data set [1] amounted to 9.14 µg/mL (≈ 26.8 µM).

`Cc1cc(C)cc(C(=O)c2c(C(C)C)c(=O)[nH]c(=O)n2C/C=C/CO)c1` [Example 76, 1-(4-hydroxy-trans-2-butenyl)-5-isopropyl-6-(3,5-dimethylbenzoyl)-2,4-pyrimidinedione]: in the data set on HIV, the EC50 is below 0.025 µg/mL and the “S.I.: Selectivity index (CD50/ED50)” value is given as > 1,679. In addition, in data set [1], the CC50 came to 42 µg/mL (≈ 118 µM).

`C=CCn1c(C(=O)c2cc(C)cc(C)c2)c(CC)c(=O)[nH]c1=O` [Example 43, 1-allyl-5-ethyl-6-(3,5-dimethylbenzoyl)-2,4-pyrimidinedione]: in the data set with HIV, the EC50 is below 0.17 µg/mL and the “S.I.: Selectivity index (CD50/ED50)” value was above 320. Also, the CC50 in data set [1] turned out to be 54.5 µg/mL (≈ 175 µM).

Consider `CCc1c(Sc2cc(C)cc(C)c2)n(CC=CC(=O)O)c(=O)[nH]c1=O` [Example 77, 1-(carboxyallyl)-5-ethyl-6-(3,5-dimethylphenylthio)-2,4-pyrimidinedione], for which, in the data set with HIV, the EC50 is below 0.902 µg/mL and the “S.I.: Selectivity index (CD50/ED50)” value was above 75. For the same molecule, the CC50 in data set [1] was found to be 68.3 µg/mL (≈ 190 µM).

For `CCc1c(C(=O)c2cc(C)cc(C)c2)n(CC=C(C)C)c(=O)[nH]c1=O` [Example 7, 1-(3-methyl-2-butenyl)-5-ethyl-6-(3,5-dimethylbenzoyl)-2,4-pyrimidinedione], in the data set on HIV, the EC50 is below 0.33 µg/mL and the “S.I.: Selectivity index (CD50/ED50)” value is given as above 84. The CC50 in data set [1] is 27.8 µg/mL (≈ 81.8 µM).

Take `CC#CCn1c(Cc2cc(C)cc(C)c2)c(CC)c(=O)[nH]c1=O` [Example 39, 1-(2-butynyl)-5-ethyl-6-(3,5-dimethylbenzyl)-2,4-pyrimidinedione]: in the data set on HIV, the EC50 was below 0.049 µg/mL and the “S.I.: Selectivity index (CD50/ED50)” value is above 176. For the same molecule, in data set [1], the CC50 was found to be 8.65 µg/mL (≈ 27.9 µM).

On to `CC#CCn1c(Sc2cc(C)cc(C)c2)c(CC)c(=O)[nH]c1=O` [Example 25, 1-(2-butynyl)-5-ethyl-6-(3,5-dimethylphenylthio)-2,4-pyrimidinedione], for which, in the data set on HIV, the EC50 was below 0.69 µg/mL and the “S.I.: Selectivity index (CD50/ED50)” value is given as above 90. In data set [1], the CC50 is 62.5 µg/mL (≈ 190 µM).

With `CCc1c(Cc2cc(C)cc(C)c2)n(C/C=C/c2ccccc2)c(=O)[nH]c1=O` [Example 35], in the data set with HIV, the EC50 is below 0.009 µg/mL and the “S.I.: Selectivity index (CD50/ED50)” value was determined as 642. In addition, the CC50 in data set [1] is 5.78 µg/mL (≈ 15.4 µM).

Take `CCc1c(Oc2cc(C)cc(C)c2)n(C/C=C/CO)c(=O)[nH]c1=O` [Example 83, 1-(4-hydroxy-trans-2-butenyl)-5-ethyl-6-(3,5-dimethylphenoxy)-2,4-pyrimidinedione]: in the data set on HIV, the EC50 was below 0.81 µg/mL and the “S.I.: Selectivity index (CD50/ED50)” value is listed as above 31. Further, in data set [1], the CC50 turned out to be 25.5 µg/mL (≈ 77.2 µM).

Regarding `CC#CCn1c(Sc2cc(C)cc(C)c2)c(C(C)C)c(=O)[nH]c1=O` [Example 31, 1-(2-butynyl)-5-isopropyl-6-(3,5-dimethylphenylthio)-2,4-pyrimidinedione], in the data set on HIV, the EC50 is below 0.32 µg/mL and the “S.I.: Selectivity index (CD50/ED50)” value was above 52. Moreover, the CC50 in data set [1] is 16.9 µg/mL (≈ 49.5 µM).

For `C/C=C/Cn1c(Cc2cc(C)cc(C)c2)c(C(C)C)c(=O)[nH]c1=O` [Example 41], in the data set on HIV, the EC50 came to 0.01 µg/mL (≈ 0.0306 µM) and the “S.I.: Selectivity index (CD50/ED50)” value is listed as > 2,104. Besides, the CC50 in data set [1] came to 21 µg/mL (≈ 64.5 µM).

As to `CCc1c(C(=O)c2cc(C)cc(C)c2)n(CC#Cc2ccccc2)c(=O)[nH]c1=O` [Example 50, 1-(3-phenyl-2-propynyl)-5-ethyl-6-(3,5-dimethylbenzoyl)-2,4-pyrimidinedione], in the data set on HIV, the EC50 was below 0.009 µg/mL and the “S.I.: Selectivity index (CD50/ED50)” value is above 482. In addition, in data set [1], the CC50 was found to be 4.34 µg/mL (≈ 11.2 µM).

In the case of `C/C=C\Cn1c(Oc2cc(C)cc(C)c2)c(C(C)C)c(=O)[nH]c1=O` [Example 71, 1-(cis-2-butenyl)-5-isopropyl-6-(3,5-dimethylphenoxy)-2,4-pyrimidinedione], in the data set with HIV, the EC50 is below 0.0155 µg/mL and the “S.I.: Selectivity index (CD50/ED50)” value is above 497. Besides, in data set [1], the CC50 was determined as 7.71 µg/mL (≈ 23.5 µM).

Consider `CCc1c(Sc2cc(C)cc(C)c2)n(COCc2ccccc2)c(=O)[nH]c1=O` [Ref. 2, 1benzyloxymethyl-5-ethyl-6-(3,5-dimethylphenylthio)-2,4-pyrimidinedione, reference compound], for which, in the data set on HIV, the EC50 was below 0.009 µg/mL and the “S.I.: Selectivity index (CD50/ED50)” value is given as above 672. In data set [1], the CC50 amounted to 6.05 µg/mL (≈ 15.3 µM).

In the case of `Cc1cc(C)cc(C(=O)c2c(C(C)C)c(=O)[nH]c(=O)n2C/C=C/CN=[N+]=[N-])c1` [Example 74, 1-(4-azido-trans-2-butenyl)-5-isopropyl-6-(3,5-dimethylbenzoyl)-2,4-pyrimidinedione], in the data set on HIV, the EC50 is below 0.009 µg/mL and the “S.I.: Selectivity index (CD50/ED50)” value is reported as above 954. Further, the CC50 in data set [1] amounted to 8.59 µg/mL (≈ 22.5 µM).
